Data on four compounds can be found in publication PMC3954793, “SHP-2 Binds to Caveolin-1 and Regulates Src Activity via Competitive Inhibition of CSK in Response to H2O2 in Astrocytes” (PLoS ONE, 2014).

“Also recorded” adds a separate entry of the source. Where two headings read alike, the source gives them in different places. Square brackets hold non-standard residues; d marks the D form. Ends that are not written are not given here. pY = N[C@@H](Cc1ccc(OP(=O)(O)O)cc1)C(=O)O

Assay [1] deals with caveolin-1 (Tyr 14 phosphorylation). The conditions noted are these: bovine pulmonary artery endothelial cells and placenta artery endothelial cells; ref [28]–[30]; cited from earlier work.
The subject of a further assay is FAK phosphorylation. In words: Immunoblot of p-FAK. In kind it is cell-based, human. Conditions: CRT-MG cells; 5 mM H2O2, 10 min. Here is the method:
(§1) Figure 7 SHP-2 and CSK reciprocally regulate H2O2-induced Src activation. […] Tubulin was evaluated as a loading control. Bottom panel, Densitometric quantification of p-Src Y419 levels (empty bars) and p-Src Y530 levels (filled bars), normalized to the level of total Src. Results are expressed as percentage of H2O2-treated values in control siRNA presented as mean ± SD. (*p<0.05 vs. H2O2-treated cells transfected with control siRNA; #p<0.05 between SHP-2 siRNA-transfected cells and CSK siRNA-transfected cells; n = 3). (B) Inhibition of SHP-2 by PTPi IV attenuated the H2O2-induced activation of the Src signaling pathway. CRT-MG cells were treated with 5 mM H2O2 or not for 10 min in the presence of 5 or 10 µM PTPi IV for 30 min, and lysed in cold-RIPA buffer. Antibodies against p-SHP-2, SHP-2, p-Src, Src, p-FAK, FAK, p-ERK, ERK, and tubulin were used for immunoblotting. Bottom panel, Densitometric quantification of p-Src Y419 levels (empty bars) and p-Src Y530 levels (filled bars), normalized to the level of total Src. […] (p, phospho).

The next assay concerns ERK phosphorylation. As to the kind of experiment: Immunoblot of p-ERK. Conditions: CRT-MG cells; 5 mM H2O2, 10 min. Type of assay: cell-based, human. How it is done: Cells were plated and transfected with green fluorescence protein (GFP) siRNA (Samchully Pharm Co. Ltd., Seoul, Korea) as a control group and human CSK siRNA and human SHP-2 siRNA from Bioneer (Daejeon, Korea) using Lipofectamine RNAiMAX (Invitrogen, Carlsbad, CA, USA) according to the manufacturer’s instructions to achieve a final concentration of 300 nM.
as §1
A general note: In western blotting, separated proteins are transferred to a membrane and probed.

Assay [2] has as its system caveolin-1 (Tyr 14 phosphorylation). The conditions noted are these: rat primary astrocytes; 1 mM H2O2, 10 min; immunoblot.
The next assay deals with caveolin-1/CSK complex. As to the kind of experiment: Co-immunoprecipitation of caveolin-1 and CSK. Type of assay: cell-based, human. Conditions: CRT-MG cells; H2O2 10 min; IP anti-caveolin-1. Here is the method: cDNA encoding full-length human caveolin-1 was obtained from Thermo Scientific (Waltham, MA, USA). The Y14A caveolin-1 mutant was generated using a QuickChange site-directed mutagenesis kit (Stratagene, Santa Clara, CA, USA) using PCR. pCMV-SPORT6-caveolin-1 cDNA (25 ng) was used as a template and added to dNTP mix, Pfu buffer, Pfu turbo DNA polymerase and 125 ng of each of the mutagenic primers: sense, 5′-[…]-3′ and antisense, 5′-[…]-3′. Samples were then incubated at 95°C for 1 min, then for 20 cycles of 95°C for 1 min, 65°C for 4 min, and 68°C for 12 min. The methylated parental DNA template in the PCR product was digested using the DpnI (10 U) restriction enzyme for 3 h at 37°C. […] After mutagenesis, 1 µg of caveolin-1 wild-type (WT) or Y14A mutant DNA was transfected into HEK 293T cells using VIVAMAGIC transfection reagent (VIVAGEN, Seongnam, Korea) containing 10% FBS according to the manufacturer’s instructions for 24 h before treatment with 5 mM H2O2 for 10 min; the cells were then analyzed by immunoblotting.
Cells were plated and transfected with green fluorescence protein (GFP) siRNA (Samchully Pharm Co. Ltd., Seoul, Korea) as a control group and human CSK siRNA and human SHP-2 siRNA from Bioneer (Daejeon, Korea) using Lipofectamine RNAiMAX (Invitrogen, Carlsbad, CA, USA) according to the manufacturer’s instructions to achieve a final concentration of 300 nM. […]

A further assay has as its system caveolin-1/SHP-2 complex. Conditions: CRT-MG cells; 5 mM H2O2, 10 min; PLA red dots; repeated 4 times.
Assay [3] concerns caveolin-1 (Tyr 14 phosphorylation). As to the kind of experiment: Immunoblot of p-caveolin-1 in human astroglioma cells and HUVECs. In kind it is cell-based. The conditions noted are these: for suppression of H2O2-induced caveolin-1 phosphorylation: pretreated 30 min, then 5 mM H2O2 for 10 min, percentage of H2O2-treated values, three independent experiments. The text has this: HUVECs were utilized as a positive control. Data are representative of at least three experiments. […] Data are representative of three independent experiments.

Another assay deals with recombinant GST-CSK. In words: PepSPOTs assay, rGST-CSK. Type of assay: binding. Conditions: 13-mer peptides of caveolin-1 (1–85) with phosphorylated Tyr 6, 14, 25, 42 on cellulose membrane; 1 µg rGST-CSK, overnight; repeated 3 times. How it is done: (§2) Identification of binding sites for recombinant SHP-2 and CSK in the caveolin-1 protein was performed using PepSPOTs (JPT Peptide Technologies GmbH, Berlin, Germany). Synthetic peptide sequences of caveolin-1 (1–85 and 1–28) were used in this study. The peptide library contained either 13-mer peptides that overlapped by 5 residues or 13-mer peptides that overlapped by 8 residues. Each spot carried approximately 5 nmol of peptide covalently bound to the cellulose-betaalanine-membrane (N-terminus: acetyl). Two identical membranes were incubated overnight with either recombinant GST-SHP-2 (rGST-SHP-2) or GST-CSK (rGST-CSK) respectively, and immunoblotting was performed to detect rGST-SHP-2/caveolin-1 peptide and rGST-CSK/caveolin-1 peptide interactions.
(§3) Figure 4 Both SHP-2 and CSK bind specifically to phosphorylated caveolin-1 at Tyr 14. (A) Schematic diagram of caveolin-1. (B) A peptide array assay was performed to identify the binding site for recombinant SHP-2 and CSK in the caveolin-1 protein. Schematic diagram of the synthetic peptide sequences of caveolin-1 (1–85) spotted on the membrane used for study is shown in the left panel. The peptide numbering starts with 1 in the left corner and the phosphorylated tyrosine residues are indicated in bold. […]

For a further assay, the target named is T1, recombinant GST-SHP-2 (Homo sapiens, UniProt Q06124).
T1 construct: purchased Abnova (Taipei, Taiwan)
T1 sequence (Q06124 1-593): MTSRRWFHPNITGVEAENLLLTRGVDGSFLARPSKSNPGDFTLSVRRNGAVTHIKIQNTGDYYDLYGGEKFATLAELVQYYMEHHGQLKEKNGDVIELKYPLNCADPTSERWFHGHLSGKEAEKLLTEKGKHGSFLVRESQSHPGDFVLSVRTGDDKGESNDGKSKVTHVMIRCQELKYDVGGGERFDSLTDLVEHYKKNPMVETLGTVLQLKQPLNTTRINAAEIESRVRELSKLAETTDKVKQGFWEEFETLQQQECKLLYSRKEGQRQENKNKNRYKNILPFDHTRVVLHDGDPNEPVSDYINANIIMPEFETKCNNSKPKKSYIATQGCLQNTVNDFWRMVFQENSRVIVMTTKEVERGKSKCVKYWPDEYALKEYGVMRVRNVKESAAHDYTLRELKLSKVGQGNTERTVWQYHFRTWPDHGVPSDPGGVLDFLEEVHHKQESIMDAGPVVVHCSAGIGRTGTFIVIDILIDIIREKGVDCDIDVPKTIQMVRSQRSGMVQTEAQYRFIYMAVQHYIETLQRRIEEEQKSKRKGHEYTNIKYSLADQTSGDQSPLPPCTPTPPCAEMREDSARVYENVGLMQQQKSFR
In words: PepSPOTs assay, rGST-SHP-2. In kind it is binding. The conditions noted are these: 13-mer peptides of caveolin-1 (1–85) with phosphorylated Tyr 6, 14, 25, 42 on cellulose membrane; 1 µg rGST-SHP-2, overnight; repeated 3 times. How it is done: as §2, §3

As for `OO` [H2O2, hydrogen peroxide], the “phosphorylation of caveolin-1 at Tyr 14” value was “induces the phosphorylation of caveolin-1 at Tyr 14” in assay [1]; “induced the phosphorylation of caveolin-1; also recorded: strongly induced phosphorylation of caveolin-1 at Tyr 14” in [2]; “induced the phosphorylation of caveolin-1” in assay [3] (HUVECs (positive control), 1 mM H2O2, 10 min, immunoblot). In the assay on FAK phosphorylation, the “phosphorylation of FAK, H2O2-induced” value was “leads to phosphorylation of ERK 1/2 and FAK”. Besides, the “phosphorylation of ERK 1/2, H2O2-induced” value in the assay on ERK phosphorylation is “leads to phosphorylation of ERK 1/2 and FAK”. Further, the “complex formation between caveolin-1 and CSK” value in the assay with caveolin-1/CSK complex is “complex formation occurred between caveolin-1 and CSK”. Also, the “direct interaction between SHP-2 and caveolin-1” value in the assay on caveolin-1/SHP-2 complex was “a direct interaction between SHP-2 and caveolin-1 (indicated by red dots) occurred”. Besides, in assay [3] (CRT-MG cells, H2O2 0–5 mM, 10 min, normalized to tubulin, mean ± SD from three experiments), the “level of Tyr-phosphorylated caveolin-1, dose dependence” value was “dose-dependent increase in the level of Tyr-phosphorylated caveolin-1 up to a concentration of 5 mM”.

On to `CC(=O)N[C@@H](CS)C(=O)O` [NAC, N-acetyl-L-cysteine], for which the “suppression of H2O2-induced caveolin-1 phosphorylation” value in assay [3] (CRT-MG cells) is given as “considerably suppressed H2O2-induced caveolin-1 phosphorylation in a dose-dependent manner; also recorded: modest compared to catalase”.

As to catalase, the “suppression of H2O2-induced caveolin-1 phosphorylation” value in [3] (CRT-MG cells) is reported as “considerably suppressed H2O2-induced caveolin-1 phosphorylation in a dose-dependent manner; also recorded: completely abrogates H2O2-induced caveolin-1 phosphorylation”.

“spot 2: residues 9–21 of caveolin-1 (spot 2), which included Tyr 14 (Ac-SEGHL[pY]TVPIREQ)”: the “binding of rGST-CSK to caveolin-1 peptide spots” value in the assay with recombinant GST-CSK was “strong binding”. Moreover, in the assay with recombinant GST-SHP-2, the “binding of rGST-SHP-2 to caveolin-1 peptide spots” value is listed as “only 1 spot of bound recombinant SHP-2 was detected”.
